Assays:
prostate cancer cells = assay: Par-4 secretion from prostate cancer cells; type: cell-based; settings: relative to vehicle control
PC-3MM2 = assay: Apoptosis, PC-3MM2 cells; type: cell-based, human; settings: 500 nM
Protocol: (§1) See Hebbar, N., Wang, C. & Rangnekar, V. M. J Cell Phys 227, 3715-3721 (2012) and Shrestha-Bhattarai, T., Hebbar, N. & Rangnekar, V. M. Cancer Cell 24, 3-5 (2013). A total of three independent experiments were performed; and approximately 500 cells were scored in each experiment for apoptosis under a fluorescent microscope. Cell surface GRP78 expression on the cancer cell surface was quantified by FACS analysis in the Flow Cytometry Shared Resource Facility, Markey Cancer Center as previously described. See Hebbar, N., Wang, C. & Rangnekar, V. M. J Cell Phys 227, 3715-3721 (2012).

[1] = test system: diverse cancer cells (lung cancer A549, H460, LLC1, KP7B; prostate cancer PC-3 MM2, DU145, LNCaP); assay: Apoptosis by ICC for active caspase-3, cancer cells; type: cell-based, human, mouse
Protocol: Normal cells (MEFs, HELs, HBEC, PrE, prostate stromal cells PrS) or lung cancer cells (human A549 and H460, mouse LLC1 and KP7B) and prostate cancer cells (PC-3 MM2, DU145, LNCaP) were treated with the indicated amounts (0.5, 1 and 10 μM) of Arylquin 1 or vehicle (V) for 24 h, and apoptosis was determined by ICC for active caspase-3. Data shown represent mean values from three independent experiments±s.d. Asterisks (**) or (*) indicate statistical significance (P<0.0001) or (P<0.001), respectively, by the Student t test.
as §1

cell surface GRP78 = assay: Paracrine apoptosis by CM from treated MEFs with GRP78 neutralizing antibody; type: cell-based; settings: CM from Par-4+/+ MEFs treated with 500 nM
Protocol: FIGS. 4A and 4B are bar graphs illustrating percent cell surface GRP-78 expression and apoposis activity for an arylquinoline of the present disclosure. FIG. 4A is a bar graph showing cell surface GRP78 levels in cancer cells treated with CM from MEFs exposed to Arylquin 1. Par-4+/+ MEFs or Par-4−/− MEFs were treated with vehicle or Arylquin 1 (500 nM) for 24 h. The CM from these MEFs was incubated with the indicated cancer cells for 24 h. The cancer cells were then subjected to FACS analysis for cell surface GRP78 expression. Data shown represent mean values of three experiments±s.d. Asterisks (**) or (*) indicate statistical significance (P<0.0001) or (P<0.001), respectively, based on two-way ANOVA with data normality and equality of variance assumptions. […] After 24 h, the cancer cells were scored for apoptosis by ICC for active caspase-3. […]
as §1, with “See Hebbar, N., Wang, C. & Rangnekar, V. M. J Cell Phys 227, 3715-3721 (2012).” left out

[2] = test system: cancer cell cultures (PC-3 MM2 cells); assay: Ex vivo apoptosis of cancer cell cultures by serum from treated mice; type: in vivo, C57BL/6 mice (serum)
Protocol: (§2) Top: Cancer cells were co-cultured with MEFs and treated with Arylquin 1 (500 nM) or vehicle and tested for apoptosis. Bottom: Serum from mice injected with Arylquin 1 (Aq) or corn oil vehicle (V), was examined by Western blot analysis (not shown). Aliquots of serum from these mice were either directly added to the growth medium of cells in culture, or incubated with the indicated antibody, and then added to the growth medium of PC-3 MM2 cells to test for apoptosis.
Animal experiments: C57BL/6 mice were injected via the intraperitoneal route with Arylquin 1 (10 mg/kg body weight) or corn oil vehicle, and whole-blood samples were collected 24 h later. Serum was separated from the blood samples, heated at 56° C. to inactivate complement. Aliquots of the mouse serum samples were added to the growth medium (final 20% mouse serum) of normal and cancer cells in culture and tested for induction of ex vivo apoptosis in cancer cells. All animal procedures were performed with University of Kentucky IACUC approval.

[3] = test system: cancer cells co-cultured with Par-4+/+ MEFs; assay: Apoptosis in co-cultures of Par-4+/+ MEFs and cancer cells; type: cell-based
Protocol: as §2, §1

normal HEL cells = assay: Apoptosis of normal cells in co-culture experiments; type: cell-based, human; settings: 500 nM
Protocol: as §1

[4] = molecular target: T1, binding of Par-4 to vimentin (Homo sapiens, UniProt P08670); assay: Co-immunoprecipitation and immunocytochemistry of Par-4 and vimentin; type: cell-based; settings: cells treated with compound
T1 construct: the Par-4 antibody co-immunoprecipitated endogenous vimentin; endogenous in cells
T1 sequence (P08670 2-466 limits assumed): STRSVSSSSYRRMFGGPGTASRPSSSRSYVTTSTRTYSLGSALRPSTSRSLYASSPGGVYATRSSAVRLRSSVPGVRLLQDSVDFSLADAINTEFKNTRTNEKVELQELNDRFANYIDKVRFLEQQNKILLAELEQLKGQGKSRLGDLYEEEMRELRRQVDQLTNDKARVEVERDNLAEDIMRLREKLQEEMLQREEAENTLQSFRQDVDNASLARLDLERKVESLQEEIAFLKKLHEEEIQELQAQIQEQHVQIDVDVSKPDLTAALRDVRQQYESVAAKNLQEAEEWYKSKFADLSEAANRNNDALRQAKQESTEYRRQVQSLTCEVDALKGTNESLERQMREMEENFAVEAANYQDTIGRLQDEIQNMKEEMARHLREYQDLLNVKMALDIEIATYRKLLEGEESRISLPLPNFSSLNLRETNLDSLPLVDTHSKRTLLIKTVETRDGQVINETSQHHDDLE
Protocol: Co-Immunoprecipitation and Western blot analysis: Protein extracted from cell lysates was filtered, pre-cleared with 25 μL (bed volume) of protein G-Sepharose beads and immunoprecipitated with 1 μg of respective antibodies. The eluted proteins were resolved by SDS-PAGE, and subjected to Western blot analysis as described.

[5] = test system: cancer cells co-cultured with Par-4-/- MEFs; assay: Apoptosis in co-cultures of Par-4-/- MEFs and cancer cells; type: cell-based; settings: 500 nM
Protocol: as §2, §1

Question: Which results are given for CN(C)c1ccc2cc(-c3ccccc3F)c(N)nc2c1 [Arylquin 1, 3-(2-fluorophenyl)-N^7,N^7-dimethylquinoline-2,7-diamine]?
Answer: Par-4 secretion (prostate cancer cells): showed induction of Par-4 secretion; apoptosis (PC-3MM2): induced apoptosis; direct apoptosis ([1]; 500 nM): did not directly induce apoptosis; apoptosis ([1]; 0.5, 1 and 10 μM, 24 h): induced the dose-dependent apoptosis in cancer cells; mediation of paracrine apoptosis (cell surface GRP78): mediated via cell surface GRP78; pro-apoptotic activity in serum after Par-4 antibody ([2]; serum incubated with Par-4 antibody): neutralized by the Par-4 antibody; ex vivo apoptosis of cancer cell cultures by serum ([2]; serum of treated vs vehicle-treated mice, final 20% mouse serum): significantly higher (P<0.001) ex vivo apoptosis; apoptosis of cancer cells in co-culture ([3]; 500 nM, Par-4+/+ MEFs, relative to vehicle): resulted in apoptosis of the cancer cells; paracrine apoptosis of lung cancer cells by Par-4 secreted from normal cells ([3]; p53-wild type, p53-deficient and oncogenic K-ras lung cancer cells): adequate to induce paracrine apoptosis; apoptosis of normal cells in co-culture (normal HEL cells): not normal HEL cells; Par-4 co-immunoprecipitation and co-localization with vimentin [4]: neither Par-4 co-immunoprecipitation nor co-localization with vimentin; vimentin expression [4]: not associated with inhibition of vimentin expression; apoptosis of cancer cells in co-culture [5]: did not induce apoptosis
